Assays:
CSK = test: KINOMEscan; format: binding; conditions: 1000 nM
[1] = test system: ABL1(F317I)-phosphorylated; test: KINOMEscan; format: binding; conditions: 1000 nM
[2] = test system: RSK1(Kin.Dom.2-C-terminal); test: KINOMEscan; format: binding; conditions: 1000 nM
OSR1 = test: KINOMEscan; format: binding; conditions: 1000 nM
TESK1 = test: KINOMEscan; format: binding; conditions: 1000 nM
CDK4-cyclinD1 = test: KINOMEscan; format: binding; conditions: 1000 nM
AKT1 = test: KINOMEscan; format: binding; conditions: 1000 nM
PRP4 = test: KINOMEscan; format: binding; conditions: 1000 nM
EPHB6 = test: KINOMEscan; format: binding; conditions: 1000 nM
SNRK = test: KINOMEscan; format: binding; conditions: 1000 nM
IRAK4 = test: KINOMEscan; format: binding; conditions: 1000 nM
MRCKB = test: KINOMEscan; format: binding; conditions: 1000 nM
SGK2 = test: KINOMEscan; format: binding; conditions: 1000 nM
PDGFRB = test: KINOMEscan; format: binding; conditions: 1000 nM
MEK5 = test: KINOMEscan; format: binding; conditions: 1000 nM
ULK2 = test: KINOMEscan; format: binding; conditions: 1000 nM
LYN = test: KINOMEscan; format: binding; conditions: 1000 nM
ZAP70 = test: KINOMEscan; format: binding; conditions: 1000 nM
PLK3 = test: KINOMEscan; format: binding; conditions: 1000 nM
NEK2 = test: KINOMEscan; format: binding; conditions: 1000 nM
MAP3K4 = test: KINOMEscan; format: binding; conditions: 1000 nM
FLT3-autoinhibited = test: KINOMEscan; format: binding; conditions: 1000 nM
CAMK2A = test: KINOMEscan; format: binding; conditions: 1000 nM
FLT1 = test: KINOMEscan; format: binding; conditions: 1000 nM
CDKL5 = test: KINOMEscan; format: binding; conditions: 1000 nM
STK39 = test: KINOMEscan; format: binding; conditions: 1000 nM
PLK4 = test: KINOMEscan; format: binding; conditions: 1000 nM
CAMK2D = test: KINOMEscan; format: binding; conditions: 1000 nM
CASK = test: KINOMEscan; format: binding; conditions: 1000 nM
[3] = test system: RPS6KA5(Kin.Dom.2-C-terminal); test: KINOMEscan; format: binding; conditions: 1000 nM
EPHA2 = test: KINOMEscan; format: binding; conditions: 1000 nM
AURKA = test: KINOMEscan; format: binding; conditions: 1000 nM
PHKG1 = test: KINOMEscan; format: binding; conditions: 1000 nM
Ramos = test: anti-proliferative CellTiter-Glo assay; format: cell-based; conditions: Homo sapiens, 72 h
Method: (§1) Cell viability was measured using the CellTiter–Glo assay (Promega, USA) according to the manufacturer’s instructions, and […] was measured in a Bio-red Microplate reader (Bio-Red, USA).

SU-DHL-2 = test: anti-proliferative CellTiter-Glo assay; format: cell-based; conditions: Homo sapiens, SU-DHL-2, 72 h
Method: as §1

REC-1 = test: anti-proliferative CellTiter-Glo assay; format: cell-based; conditions: Homo sapiens, Rec1; REC-1, 72 h
Method: as §1

Pfeiffer = test: anti-proliferative CellTiter-Glo assay; format: cell-based; conditions: Homo sapiens, 72 h
Method: as §1

DOHH2 = test: anti-proliferative CellTiter-Glo assay; format: cell-based; conditions: Homo sapiens, DOHH-2; DOHH2, 72 h
Method: as §1

JEKO-1 = test: anti-proliferative CellTiter-Glo assay; format: cell-based; conditions: Homo sapiens, JeKo-1, 72 h
Method: as §1

TMD8 = test: anti-proliferative CellTiter-Glo assay; format: cell-based; conditions: Homo sapiens, TMD8, 72 h
Method: as §1

SU-DHL-6 = test: anti-proliferative CellTiter-Glo assay; format: cell-based; conditions: Homo sapiens, SU-DHL-6, 72 h
Method: as §1

Raji = test: anti-proliferative CellTiter-Glo assay; format: cell-based; conditions: Homo sapiens, 72 h
Method: as §1

U2932 = test: anti-proliferative CellTiter-Glo assay; format: cell-based; conditions: Homo sapiens, U2932, 72 h
Method: as §1

WSU-DLCL2 = test: anti-proliferative CellTiter-Glo assay; format: cell-based; conditions: Homo sapiens, WSUDLCL2; WSU-DLCL2, 72 h
Method: as §1

ALK(C1156Y) = test: KINOMEscan; format: binding; conditions: 1000 nM
RAF1 = test: KINOMEscan; format: binding; conditions: 1000 nM
FGFR3 = test: KINOMEscan; format: binding; conditions: 1000 nM
PIK3CG = test: KINOMEscan; format: binding; conditions: 1000 nM
TSSK3 = test: KINOMEscan; format: binding; conditions: 1000 nM
CDK8 = test: KINOMEscan; format: binding; conditions: 1000 nM
PRKCI = test: KINOMEscan; format: binding; conditions: 1000 nM
VRK2 = test: KINOMEscan; format: binding; conditions: 1000 nM
VEGFR2 = test: KINOMEscan; format: binding; conditions: 1000 nM
CAMK1G = test: KINOMEscan; format: binding; conditions: 1000 nM
PKAC-alpha = test: KINOMEscan; format: binding; conditions: 1000 nM
EGFR(L858R,T790M) = test: KINOMEscan; format: binding; conditions: 1000 nM

## C=CC(=O)Nc1cc(Nc2cc(-c3cccc(NC(=O)c4cc5c(s4)CCCC5)c3C)cn(C)c2=O)ccc1N1CCN(CC)CC1 [CHMFL-BTK-85]
CSK
  Percent Control: 80%
[1]
  Percent Control: 100%
[2]
  Percent Control: 100%
OSR1
  Percent Control: 100%
TESK1
  Percent Control: 96%
CDK4-cyclinD1
  Percent Control: 100%
AKT1
  Percent Control: 80%
PRP4
  Percent Control: 92%
EPHB6
  Percent Control: 69%
SNRK
  Percent Control: 86%
IRAK4
  Percent Control: 100%
MRCKB
  Percent Control: 75%
SGK2
  Percent Control: 100%
PDGFRB
  Percent Control: 68%
MEK5
  Percent Control: 100%
ULK2
  Percent Control: 100%
LYN
  Percent Control: 100%
ZAP70
  Percent Control: 100%
PLK3
  Percent Control: 99%
NEK2
  Percent Control: 99%
MAP3K4
  Percent Control: 92%
FLT3-autoinhibited
  Percent Control: 100%
CAMK2A
  Percent Control: 82%
FLT1
  Percent Control: 100%
CDKL5
  Percent Control: 100%
STK39
  Percent Control: 100%
PLK4
  Percent Control: 97%
CAMK2D
  Percent Control: 75%
CASK
  Percent Control: 100%
[3]
  Percent Control: 66%
EPHA2
  Percent Control: 87%
AURKA
  Percent Control: 92%
PHKG1
  Percent Control: 94%
Ramos
  GI50: 1300 ± 100 nM
SU-DHL-2
  GI50: 570 ± 350 nM
REC-1
  GI50: 28 ± 7 nM
Pfeiffer
  GI50: 290 ± 140 nM
DOHH2
  GI50: 700 ± 150 nM
JEKO-1
  GI50: 1100 ± 240 nM
TMD8
  GI50: 17 ± 4 nM
SU-DHL-6
  GI50: 970 ± 220 nM
Raji
  GI50: 1500 ± 58 nM
U2932
  GI50: 800 ± 96 nM
WSU-DLCL2
  GI50: 1400 ± 210 nM
ALK(C1156Y)
  Percent Control: 100%
RAF1
  Percent Control: 88%
FGFR3
  Percent Control: 82%
PIK3CG
  Percent Control: 100%
TSSK3
  Percent Control: 100%
CDK8
  Percent Control: 100%
PRKCI
  Percent Control: 100%
VRK2
  Percent Control: 94%
VEGFR2
  Percent Control: 99%
CAMK1G
  Percent Control: 94%
PKAC-alpha
  Percent Control: 100%
EGFR(L858R,T790M)
  Percent Control: 99%

From publication PMC7490411 (Signal Transduction and Targeted Therapy, 2020)
